The source of these data is ChEMBL document CHEMBL1144356 (J Med Chem, 2005).

Experiment [1] relates to Canis familiaris. The experiment is described as follows: Effect on cholesterol lowering in male Beagle dog at an oral dose of 0.01 mkd for 15 days.
The subject of experiment [2] is Canis familiaris. The experiment is described as follows: Effect on cholesterol lowering in male Beagle dog at an oral dose of 0.1 mkd for 10 days.
Experiment [3] concerns Cricetinae gen. sp. The experiment is described as follows: Effect at an oral dose of 1 mg/kg/day for 14 days on serum cholesterol level of hamster. Format: functional, Cricetulus griseus.
Experiment [4] concerns Canis familiaris. Description: Effect on cholesterol lowering in male Beagle dog at an oral dose of 0.1 mkd for 3 days.
Experiment [5] concerns Canis familiaris. Description: Effect on cholesterol lowering in male Beagle dog at an oral dose of 0.03 mkd for 10 days.
The target of experiment [6] is T1, Peroxisome proliferator-activated receptor alpha (Homo sapiens, UniProt Q07869).
T1 sequence (Q07869 whole entry): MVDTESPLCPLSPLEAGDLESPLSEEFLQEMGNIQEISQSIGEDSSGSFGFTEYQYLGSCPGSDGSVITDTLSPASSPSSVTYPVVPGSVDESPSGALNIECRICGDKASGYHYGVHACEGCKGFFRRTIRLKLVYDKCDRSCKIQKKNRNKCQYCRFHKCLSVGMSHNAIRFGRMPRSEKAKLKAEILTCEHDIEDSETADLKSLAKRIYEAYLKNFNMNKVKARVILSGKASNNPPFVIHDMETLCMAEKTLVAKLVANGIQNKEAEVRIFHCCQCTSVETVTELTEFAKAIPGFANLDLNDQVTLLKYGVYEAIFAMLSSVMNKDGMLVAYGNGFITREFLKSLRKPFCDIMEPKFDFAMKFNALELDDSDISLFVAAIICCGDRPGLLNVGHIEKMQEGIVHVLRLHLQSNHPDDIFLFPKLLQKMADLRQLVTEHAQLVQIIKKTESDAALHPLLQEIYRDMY
Description: Effective concentration against human PPAR-alpha in Gal4 transactivation assay. In kind it is functional.

In experiment [7] the test system is Canis familiaris. Description: Effect on cholesterol lowering in male Beagle dog at an oral dose of 0.1 mkd for 15 days.
The subject of experiment [8] is Cricetinae gen. sp. Description: Effect at an oral dose of 1 mg/kg/day for 14 days on serum triglyceride level of hamster. In kind it is functional, Cricetulus griseus.
The subject of experiment [9] is Canis familiaris. The experiment is described as follows: Effect on cholesterol lowering in male Beagle dog at an oral dose of 0.03 mkd for 3 days.
For experiment [10], the target named is T2, Peroxisome proliferator-activated receptor alpha (Canis lupus familiaris, UniProt Q95N78).
T2 sequence (Q95N78 whole entry): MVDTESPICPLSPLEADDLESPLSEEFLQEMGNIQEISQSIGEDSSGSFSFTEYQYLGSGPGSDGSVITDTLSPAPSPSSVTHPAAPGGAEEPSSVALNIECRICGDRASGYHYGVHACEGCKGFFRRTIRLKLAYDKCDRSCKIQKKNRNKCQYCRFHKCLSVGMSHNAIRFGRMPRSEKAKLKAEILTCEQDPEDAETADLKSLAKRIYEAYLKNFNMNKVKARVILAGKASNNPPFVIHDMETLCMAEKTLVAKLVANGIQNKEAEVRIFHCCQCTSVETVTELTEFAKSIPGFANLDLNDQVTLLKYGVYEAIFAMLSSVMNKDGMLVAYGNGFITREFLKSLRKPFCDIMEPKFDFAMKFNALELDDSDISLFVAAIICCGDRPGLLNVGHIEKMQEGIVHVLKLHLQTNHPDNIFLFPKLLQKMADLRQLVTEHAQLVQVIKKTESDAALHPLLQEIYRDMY
Description: Effective concentration against canine PPAR-alpha in Gal4 transactivation assay.

Experiment [11] can be described thus: In vitro binding affinity for PPAR-alpha. Also on record: species or system Homo sapiens.
For experiment [12], the target named is T3, Peroxisome proliferator-activated receptor gamma (Homo sapiens, UniProt P37231).
T3 sequence (P37231 whole entry): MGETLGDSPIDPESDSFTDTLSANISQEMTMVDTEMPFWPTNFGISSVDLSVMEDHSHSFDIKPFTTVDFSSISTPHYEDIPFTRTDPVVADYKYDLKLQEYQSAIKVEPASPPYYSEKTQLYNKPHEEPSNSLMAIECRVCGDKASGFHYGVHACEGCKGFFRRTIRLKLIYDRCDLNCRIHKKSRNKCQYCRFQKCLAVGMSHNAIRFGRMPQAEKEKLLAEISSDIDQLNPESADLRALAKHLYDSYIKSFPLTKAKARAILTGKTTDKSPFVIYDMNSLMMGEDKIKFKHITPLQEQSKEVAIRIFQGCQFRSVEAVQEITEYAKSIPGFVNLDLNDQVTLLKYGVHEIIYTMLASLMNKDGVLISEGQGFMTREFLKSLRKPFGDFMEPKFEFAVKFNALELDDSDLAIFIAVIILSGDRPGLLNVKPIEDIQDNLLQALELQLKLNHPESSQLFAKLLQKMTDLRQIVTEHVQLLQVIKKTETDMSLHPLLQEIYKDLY
The experiment is described as follows: Effective concentration against human PPAR-gamma in Gal4 transactivation assay; 30% response at 3 uM. In kind it is functional.

Experiment [13] has as its target T3, Peroxisome proliferator-activated receptor gamma. The experiment is described as follows: In vitro binding affinity for PPAR-gamma.
In experiment [14] the test system is Canis familiaris. The experiment is described as follows: Effect on cholesterol lowering in male Beagle dog at an oral dose of 0.01 mkd for 3 days.
In experiment [15] the test system is Canis familiaris. The experiment is described as follows: Effect on cholesterol lowering in male Beagle dog at an oral dose of 0.1 mkd for 7 days.
Experiment [16] concerns Canis familiaris. The experiment is described as follows: Effect on cholesterol lowering in male Beagle dog at an oral dose of 0.3 mkd for 15 days.
Experiment [17] deals with Canis familiaris. The experiment is described as follows: Effect on cholesterol lowering in male Beagle dog at an oral dose of 0.3 mkd for 7 days.
Experiment [18] deals with Canis familiaris. Description: Effect on cholesterol lowering in male Beagle dog at an oral dose of 0.01 mkd for 10 days.
Experiment [19] relates to Cricetinae gen. sp. Description: Effect at an oral dose of 0.3 mg/kg/day for 14 days on serum triglyceride level of hamster. In kind it is functional, Cricetulus griseus.
The target of experiment [20] is T4, Peroxisome proliferator-activated receptor delta (Homo sapiens, UniProt Q03181).
T4 sequence (Q03181 whole entry): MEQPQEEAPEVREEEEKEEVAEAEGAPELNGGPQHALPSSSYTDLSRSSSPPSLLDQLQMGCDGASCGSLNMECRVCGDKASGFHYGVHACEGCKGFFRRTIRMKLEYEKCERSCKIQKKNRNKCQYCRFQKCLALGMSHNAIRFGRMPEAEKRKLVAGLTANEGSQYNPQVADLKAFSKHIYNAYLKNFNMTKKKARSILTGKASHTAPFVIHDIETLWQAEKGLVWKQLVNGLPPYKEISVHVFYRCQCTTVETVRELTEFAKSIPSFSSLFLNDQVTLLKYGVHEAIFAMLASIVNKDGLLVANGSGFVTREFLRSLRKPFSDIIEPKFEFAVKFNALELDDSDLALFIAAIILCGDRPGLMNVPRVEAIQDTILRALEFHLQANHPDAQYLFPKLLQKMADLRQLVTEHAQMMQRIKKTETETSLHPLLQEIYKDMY
The experiment is described as follows: In vitro binding affinity for PPAR-delta.

Take `CC[C@@]1(C(=O)O)Cc2cc(OCCCOc3ccc(OC(F)(F)F)cc3Cl)ccc2O1`: the TC in experiment [1] is -21%; in experiment [2] it was -22.1%; in experiment [3], -42%; in [4], -7.5%; in experiment [5], -17.9%; in [7], -22.1%. The TC is on record as -6.5% in experiment [9]; -6.7% in [14]; -18% in experiment [15]; -24.2% in experiment [16]; -17.4% in experiment [17]; -11.7% in [18]. In addition, the EC50 is 2 nM in experiment [6], 2 nM in experiment [10] and more than 3000 nM in [12]. Further, the TG is -43.65% in experiment [8] and -31.85% in [19]. The IC50 was 6 nM in [11], more than 15000 nM in experiment [13] and more than 15000 nM in experiment [20].
